Laboratory results from US20120232011A1, “Use of Rapamycin and Rapamycin Derivatives for the Treatment of Bone Loss” (priority 2003, published 2012).
Like-named read-outs stand apart in the source and are kept apart here.

Legend:
[1] = test system: osteoclast-specific protease cathepsin K; assay: Gene expression in human osteoclasts: cathepsin K; format: cell-based; settings: human osteoclasts after treatment
Experimental: (§1) A.3 Gene expression is analyzed according to a method known in the art, in human osteoclasts after treatment with rapamycin or a derivative thereof.

[2] = test system: cancellous bone loss after ovariectomy; assay: Ovariectomized rat model; format: in vivo
Experimental: Before operation, the tibial bone mass and geometry of the animals is measured at baseline by dual-energy x-ray absorptiometry (DEXA) and periphere quantitative computer tomography (pQCT). Following ovariectomy (OVX) or sham operation, skeletally mature rats are treated for 8 weeks daily with 0.15 mg/kg, 0.5 mg/kg, 1.5 mg/kg, or 3.0 mg/kg of rapamycin or a rapamycin derivative, e.g. Compound A, or vehicle alone by oral administration or once a week with 1.5 mg/kg or 5.0 mg/kg of rapamycin or a rapamycin derivative; e.g. Compound A. At the beginning of the treatment, animals receive a fluorochrome label, e.g. calcein (e.g. 30 mg/kg, subcutaneous (s.c.)). Changes in bone mass and geometry (pQCT, DEXA) are evaluated in vivo after 4 weeks of treatment and at 8 weeks before necropsy. Body weight is monitored weekly. The animals are administered two further fluorochrome labels for marking of bone mineralization prior to necropsy, e.g. alizarin e.g. 20 mg/kg, s.c., 10 days prior to necropsy, and calcein e.g. 30 mg/kg, s.c., 3 days prior to necropsy. Blood samples (500 μl blood) are taken in heparin before necropsy and frozen at −20° C. for analysis of calcium, phosphate, TRAP, ALP, and osteocalcin. DEXA measurements are carried out at necropsy on excised tibia, femur, and lumbar vertebrae.

[3] = test system: Cdc2-related serine/threonine PFTAIREI; assay: Gene expression in human osteoclasts: PFTAIREI; format: cell-based; settings: human osteoclasts after treatment
Experimental: as §1

[4] = test system: mouse pre-osteoblastic cell line MC3T3-1b; assay: Osteoblast differentiation in MC3T3-1b cells (alkaline phosphatase staining); format: cell-based; settings: MC3T3-1b cells with osteogenic stimulus (BMP-2, ascorbic acid, beta-glycerophosphate); read-out: Alkaline phosphatase (ALP) staining IC50
Experimental: Osteoblast differentiation is evaluated in mouse pre-osteoblastic cell line MC3T3-1b, stimulated to differentiate with osteogenic stimulus (a mixture of bone morphogenetic protein 2 (BMP-2), ascorbic acid and beta-glycerophosphate). Osteoplast activity is measured by quantifying culture area covered with alkaline phosphate-positive cells on a 48-well plate. Treatment with rapamycin or the rapamycin derivative, e.g. Compound A, starts at the beginning of cell culture, together with the osteogenic stimulus treatment.

[5] = test system: bone-resorbing osteoclasts differentiated from non-adherent bone marrow mononuclear cells; assay: Mouse osteoclastogenesis assay (osteoclast formation and activity); format: cell-based
Experimental: Non-adherent bone marrow mononuclear cells from 5-week-old male mice cells are differentiated into bone-resorbing osteoclasts by treatment with a cytokine cocktail containing receptor activator of NF kappa B ligand (RANKL), macrophage-colony stimulating factor (M-CSF) and interleukin-1 (IL-1) alpha. Osteoclast formation is measured after 6 days by quantifying the number of tartrate-resistant acid phosphatase (TRAP)-positive multinucleated cells generated in plastic wells on a 48-well plate. Osteoclast activity is measured after 12 days by quantifying the area of resorbed dentine slices placed in wells on a 48-well plate. Treatment with rapamycin or the rapamycin derivative, e.g. Compound A, starts at the beginning of cell culture, together with the cytokine treatment.

[6] = test system: bone-resorbing osteoclasts differentiated from peripheral blood mononuclear cells; assay: Human osteoclastogenesis assay; format: cell-based
Experimental: Peripheral blood mononuclear cells from healthy male donors are differentiated into bone-resorbing osteoclasts by treatment with a cytokine cocktail containing RANKL, M-CSF and transforming growth factor (TGF)-beta 1. Osteoclast formation is measured after 17 days by quantifying the number of TRAP-positive multinucleated cells generated in plastic wells on a 96-well plate. Osteoclast activity is measured after 17 days by quantifying the area of resorbed bone on bovine cortical bone slices placed in wells on a 96-well plate. Treatment with rapamycin or the rapamycin derivative, e.g. Compound A, starts at the beginning of cell culture, together with the cytokine treatment. Collagen fragments are measured by enzyme linked immunosorbent assay (ELISA).

## CO[C@H]1C[C@@H]2CC[C@@H](C)[C@@](O)(O2)C(=O)C(=O)N2CCCC[C@H]2C(=O)O[C@H]([C@H](C)C[C@@H]2CC[C@@H](OCCO)[C@H](OC)C2)CC(=O)[C@H](C)/C=C(\C)[C@@H](O)[C@@H](OC)C(=O)[C@H](C)C[C@H](C)/C=C/C=C/C=C/1C [Compound A, 40-O-(2-hydroxyethyl)-rapamycin]
[1]
  reduction of cathepsin K expression: about 78%
[2]
  effect on trabecular number: inhibits reduction of trabecular number
[2]; 3 mg/kg/day, oral
  inhibition of cancellous bone loss: 60%
[3]
  increase of PFTAIREI expression: about 300%
[4]
  IC50: 13.5 ± 2.4 nM
[5]; TRAP-positive multinucleated cells after 6 days, read-out: osteoclast formation IC50
  IC50: 10.5 ± 4.6 nM
[5]; area of resorbed dentine slices after 12 days, read-out: osteoclast activity IC50
  IC50: 0.6 ± 0.3 nM
[6]; ELISA, read-out: Collagen fragment release IC50
  IC50: 4 ± 0.5 nM
[6]; TRAP-positive multinucleated cells after 17 days, read-out: osteoclast formation IC50
  IC50: 7.7 ± 1.1 nM
[6]; bovine cortical bone slices, 17 days, read-out: Resorbed area IC50
  IC50: 3.4 ± 0.3 nM
